In PMC12736120, “First-in-Human Phase I Clinical Trial of SLC-391, a Novel and Selective AXL Inhibitor, in Patients with Advanced Solid Tumours” (Pharmaceuticals, 2025):

Legend:
advanced solid tumours = assay: Preliminary efficacy, disease assessment by RECIST 1.1 / mRECIST; assay type: in vivo, human; settings: for best percent change in target lesion diameter (decrease): one subject
Procedure: Disease assessments were performed according to RECIST 1.1 [20, 21] and included imaging and physical examination as appropriate for disease type and location. Disease assessments were completed at screening (within 30 days of C1D1) and every 3 cycles (±7 days) relative to C1D1 until objective disease progression, study drug discontinuation, or withdrawal of informed consent.

MER = settings: stated in the Introduction, no reference given; read-out: IC50 against MER; cited from earlier work

With `Nc1ncc(-c2cnn(C3CCNCC3)c2)cc1-c1nnc(CC2CC2)o1` [SLC-391, 3-(5-[cyclopropylmethyl]-1,3,4-oxadiazol-2-yl)-5-(1-[piperidin-4-yl]-1H-pyrazol-4-yl)-pyridin-2-amine] the “rate of stable disease” value (advanced solid tumours; 150 mg BID (3/6)) was 50.0%, the “best overall response (BOR) of stable disease” value (“best overall response (BOR)” for short) (advanced solid tumours; NSCLC) was 4/16 and the “subjects with stable disease” value (advanced solid tumours; RECIST 1.1 or modified RECIST (mesothelioma)) was 12 of 35 subjects. The clinical benefit rate (advanced solid tumours; all subjects (N = 35), monotherapy) was 34.3%, the “best overall response (BOR)” value (advanced solid tumours; appendix adenocarcinoma) was 1/1 and the “best overall response (BOR)” value (advanced solid tumours; head and neck cancer) was 1/1. For the same compound, the “best overall response (BOR)” value (advanced solid tumours; mammary adenocarcinoma) was 1/1, the “best overall response (BOR)” value (advanced solid tumours; melanoma) was 1/1 and the “best overall response (BOR)” value (advanced solid tumours; mesothelioma) was 4/4. For the same compound, the “longest duration of stable disease” value (advanced solid tumours; monotherapy) was 318 days, the “patients with stable disease for more than half a year” value (advanced solid tumours; monotherapy, all stage IV, pretreated) was “six” and the “best percent change in target lesion diameter (decrease)” value (shortened to “best percent change … (decrease)”) (advanced solid tumours; 50 mg QD, at cycle 7) was 26.7%. For the same compound, the “best percent change … (decrease)” value (advanced solid tumours; 110 mg BID, on day 275) was 22.2%, the “best percent change … (decrease)” value (advanced solid tumours; 150 mg BID, at the end of treatment visit) was 8.9% and the “best percent change … (decrease)” value (advanced solid tumours; 150 mg QD, at cycle 7) was 10.7%. For the same compound, the IC50 (MER) was 44 nM.
